Measurements reported in patent publication US8067440B2, “Phosphonium salts derivatives and uses thereof” (Valorisation-Recherche, Limited Partnership, priority 2004, dated 2011).
Structures can show the parent of a compound that is named as a salt.

Compound	melting point [°C]
[Br-].c1ccc(P(c2ccccc2)c2cccc([P+](c3ccccc3)(c3ccccc3)c3ccccc3)c2)cc1	215 to 220
BrCc1ccc(-c2ccc([P+](c3ccccc3)(c3ccccc3)c3ccccc3)cc2)cc1 (as salt: perchlorate) [(16), 4-(4-bromomethylphenyl)phenyl triphenylphosphonium perchlorate]	72 to 76
